Assay results published in patent publication US6479515B1, “Heterocyclic benzenesulphonamide compounds as bradykinine antagonists” (Fournier Industrie et Sante, priority 1999, dated 2002).
Where a name gives a salt, the structure may show the parent alone. Read-outs that look alike come from different tables or passages of the source.

What was measured:
[1] = biological target: T1, bradykinin B2 receptor (Homo sapiens, UniProt P30411); test: inhibition of the contraction of the isolated human umbilical vein in the presence of bradykinin; format: cell-based
T1 construct: from tissue; host or cells: isolated human umbilical vein
T1 sequence (P30411 1-391): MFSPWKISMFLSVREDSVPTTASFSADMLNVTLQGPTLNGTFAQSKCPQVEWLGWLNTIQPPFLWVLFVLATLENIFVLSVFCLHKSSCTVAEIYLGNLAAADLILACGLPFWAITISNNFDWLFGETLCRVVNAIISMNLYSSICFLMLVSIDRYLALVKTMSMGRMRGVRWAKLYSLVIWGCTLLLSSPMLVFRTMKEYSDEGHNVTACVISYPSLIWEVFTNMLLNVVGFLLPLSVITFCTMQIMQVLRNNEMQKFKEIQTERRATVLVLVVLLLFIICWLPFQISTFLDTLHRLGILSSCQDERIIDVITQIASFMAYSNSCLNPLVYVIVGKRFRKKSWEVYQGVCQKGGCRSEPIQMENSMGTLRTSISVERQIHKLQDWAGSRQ
Excerpt: This antagonist character is expressed by the value pA2, calculated according to a biological test employed in order to measure the inhibition of the contraction of the isolated human umbilical vein by the compounds according to the invention in the presence of bradykinin. The test procedure and the method of calculation of pA2 are described in the articles of D. Pruneau et al. published in Br. J. Pharmacol. 1998, 125, p 365-372 and J L. Paquet et al. Br. J. Pharmacol. 1999, 126 (in print).

[2] = biological target: T2, human B2 receptor (Homo sapiens, UniProt P30411); test: competitive binding test on CHO cell membranes expressing the human B2 receptor using [3H]-bradykinin as ligand
T2 construct: expressed in transfected cells; host or cells: CHO cells (membranes)
T2 sequence (P30411 1-391): T1 sequence (P30411 1-391)
Procedure: The activity of the products according to the invention was evaluated, according to a first aspect, as a function of their aptitude to bind to the bradykinin B2 receptors. […] It is likewise known that bradykinin is amongst one of the most powerful algesic agents known. The mode of action of kinins and more particularly of bradykinin makes a coupling of the peptides to the two types of receptors called B1 and B2 respectively take place. The B2 receptor belongs to the large family of receptors with seven transmembrane domains coupled to the G proteins and seems to be more particularly involved in the field of the pathologies mentioned above. This is the reason why the products of the invention, which have the property of being able to bind to the B2 receptor, inhibit the binding of bradykinin and, consequently, suppress its harmful activity. The test employed in order to measure this property is a competitive binding test on CHO cell membranes expressing the human B2 receptor using bradykinin labelled with tritium ([^3H]-bradykinin) as ligand.
The results are expressed by the Ki value, as calculated according to the recommended method with the description of the test employed and described according to D. Pruneau et al., in Br. J. Pharmacol. 1998, 125 p 365-372.

[3] = isolated human umbilical vein, contraction in the presence of bradykinin
[4] = isolated human umbilical vein, contraction in the presence of bradykinin, read-out: pA2 (converted)

Q: Which pA2 [1, 3] does the source give for “1-[[2,4-Dichloro-3-[[2(L)-[[4-(2-pyridinyl)-1-piperazinyl]carbonyl]-1-pyrrolidinyl]sulphonyl]-N-methyl-N-[3-[[3-(hydroxy)propyl]-(methyl)amino]propyl]-2(S)-pyrrolidinecarboxamide, methanesulphonate [Example 105]” here?
A: 8.3

Q: What about the Ki [2] of the same compound?
A: 7.7 nM

Q: “1-[[2,4-Dichloro-3-[[[4-(1H-imidazol-1-yl)-2-methyl-8-quinolinyl]oxy]methyl]-phenyl]sulphonyl]-N-[2-(4-morpholinyl)ethyl]-2(S)-pyrrolidinecarboxamide, hemisulphate [Example 48]” was tested. Which pA2 [1, 3] did it give?
A: 8.5

Q: And the Ki [2]?
A: 32 nM

Q: Which results are given for “1-[[2,4-Dichloro-3-[[[4-(1H-imidazol-1-yl)-2-methyl-8-quinolinyl]oxy]methyl]-phenyl]sulphonyl]-N-[3-(4-morpholinyl)propyl]-2(S)-pyrrolidinecarboxamide, hemisulphate [Example 50]”?
A: pA2 [1, 3]: 8.3; Ki [2]: 30 nM

Q: How did the pA2 [1, 3] turn out when “1-[[2,4-Dichloro-3-[[[4-(1H-imidazol-1-yl)-2-methyl-8-quinolinyl]oxy]methyl]-phenyl]sulphonyl]-N-[3-(dimethylamino)propyl]-N-methyl-2(S)-pyrrolidine-carboxamide, hemisulphate [Example 61]” was run?
A: 8.1

Q: And the Ki [2]?
A: 21 nM

Q: With `Cc1cc(-n2ccnc2)c2cccc(OCc3c(Cl)ccc(S(=O)(=O)N4CCC[C@H]4C(=O)NCC4CCN(CCO)CC4)c3Cl)c2n1` [64 A] as the compound, how does the Kb [1, 4] read?
A: 0.501 nM

Q: What about the Ki [2] of the same compound?
A: 0.034 nM

Q: What does the source list for `Cc1cc(-n2ccnc2)c2cccc(OCc3c(Cl)ccc(S(=O)(=O)N4CCC[C@H]4C(=O)NCCCNC(=O)c4ccc(C(=N)N)cc4)c3Cl)c2n1` [Example 4, N-[3-[[4-(Aminoiminomethyl)benzoyl]amino]propyl]-1-[[2,4-dichloro-3-[[[4-(1H-imidazol-1-yl)-2-methyl-8-quinolinyl]oxy]methyl]phenyl]sulphonyl]-2(S)-pyrrolidinecarboxamide, bis methanesulphonate]?
A: Kb [1, 4]: 0.1 nM; Ki [2]: 0.24 nM

Q: How did the Kb [1] turn out when `Cc1cc(-n2ccnc2)c2cccc(OCc3c(Cl)ccc(S(=O)(=O)N4CCC[C@H]4C(=O)NCC4CCNCC4)c3Cl)c2n1` [Example 10, 1-[[2,4-Dichloro-3-[[[4-(1H-imidazol-1-yl)-2-methyl-8-quinolinyl]oxy]methyl]-phenyl]sulphonyl]-N-(4-piperidinylmethyl)-2(S)-pyrrolidinecarboxamide, ditartrate] was run?
A: 3.16 nM

Q: And the Ki [2]?
A: 1 nM

Q: Which Kb [1] does the source give for `Cc1cc(-n2ccnc2)c2cccc(OCc3c(Cl)ccc(S(=O)(=O)N4CCC[C@H]4C(=O)NCC4CCN(CCOCCO)CC4)c3Cl)c2n1` [Example 12, 1-[[2,4-Dichloro-3-[[[4-(1H-imidazol-1-yl)-2-methyl-8-quinolinyl]oxy]methyl]-phenyl]sulphonyl]-N-[[1-[2-(2-hydroxyethoxy)ethyl]-4-piperidinyl]methyl]-2(S)-pyrrolidinecarboxamide, tartrate] here?
A: 2 nM

Q: And the Ki [2]?
A: 0.47 nM

Q: For `Cc1cc(-n2ccnc2)c2cccc(OCc3c(Cl)ccc(S(=O)(=O)N4CCC[C@H]4C(=O)NCC4CCN(CCCO)CC4)c3Cl)c2n1` [Example 23, 1-[[2,4-Dichloro-3-[[[4-(1H-imidazol-1-yl)-2-methyl-8-quinolinyl]oxy]methyl]-phenyl]sulphonyl]-N-[[1-(3-hydroxypropyl)-4-piperidinyl]methyl]-2(S)-pyrrolidinecarboxamide, tartrate], which Kb [1] is on record?
A: 0.794 nM

Q: What about the Ki [2] of the same compound?
A: 0.45 nM

Q: With `Cc1cc(-n2cncn2)c2cccc(OCc3c(Cl)ccc(S(=O)(=O)N4CCC[C@H]4C(=O)NCC4CCN(CCCO)CC4)c3Cl)c2n1` [Example 30, 1-[[2,4-Dichloro-3-[[[2-methyl-4-(1H-1,2,4-triazol-1-yl)-8-quinolinyl]oxy]-methyl]phenyl]sulphonyl]-N-[[1-(3-hydroxypropyl)-4-piperidinyl]methyl]-2(S)-pyrrolidinecarboxamide, tartrate] as the compound, how does the Kb [1] read?
A: 2 nM

Q: And the Ki [2]?
A: 0.73 nM

Q: With `Cc1cc(-n2ccnc2)c2cccc(OCc3c(Cl)ccc(S(=O)(=O)N4CCC[C@H]4C(=O)NCC4CCN(CCCCO)CC4)c3Cl)c2n1` [Example 32, 1-[[2,4-Dichloro-3-[[[4-(1H-imidazol-1-yl)-2-methyl-8-quinolinyl]oxy]methyl]-phenyl]sulphonyl]-N-[[1-(4-hydroxybutyl)-4-piperidinyl]methyl]-2(S)-pyrrolidinecarboxamide, tartrate] as the compound, how does the Kb [1] read?
A: 0.794 nM

Q: And the Ki [2]?
A: 1.4 nM

Q: `Cc1cc(-n2ccnc2)c2cccc(OCc3c(Cl)ccc(S(=O)(=O)N4C[C@H](O)C[C@H]4C(=O)NCC4CCNCC4)c3Cl)c2n1` [Example 42, 1-[[2,4-Dichloro-3-[[[4-(1H-imidazol-1-yl)-2-methyl-8-quinolinyl]oxy]methyl]-phenyl]sulphonyl]-4(R)-hydroxy-N-(4-piperidinemethyl)-2(S)-pyrrolidine-carboxamide, ditartrate] was tested. Which Kb [1, 4] did it give?
A: 5.01 nM

Q: What about the Ki [2] of the same compound?
A: 77 nM

Q: Which Kb [1] does the source give for `Cc1cc(-n2ccnc2)c2cccc(OCc3c(Cl)ccc(S(=O)(=O)N4CCC[C@H]4C(=O)N(C)CCN(C)C)c3Cl)c2n1` [Example 73, 1-[[2,4-Dichloro-3-[[[4-(1H-imidazol-1-yl)-2-methyl-8-quinolinyl]oxy]methyl]-phenyl]sulphonyl]-N-[2-(dimethylamino)ethyl]-N-methyl-2(S)-pyrrolidine-carboxamide, tartrate] here?
A: 3.98 nM

Q: And the Ki [2]?
A: 10 nM

Q: Which Kb [1] does the source give for `Cc1cc(-n2ccnc2)c2cccc(OCc3c(Cl)ccc(S(=O)(=O)N4CCC[C@H]4C(=O)NCCN4CCCC4)c3Cl)c2n1` [Example 75, 1-[[2,4-Dichloro-3-[[[4-(1H-imidazol-1-yl)-2-methyl-8-quinolinyl]oxy]methyl]-phenyl]sulphonyl]-N-[2-(1-pyrrolidinyl)ethyl]-2(S)-pyrrolidinecarboxamide, tartrate] here?
A: 5.01 nM

Q: And the Ki [2]?
A: 2.8 nM

Q: What does the source list for `Cc1cc(-n2ccnc2)c2cccc(OCc3c(Cl)ccc(S(=O)(=O)N4CCC[C@H]4C(=O)NCCCN4CCCC4)c3Cl)c2n1` [Example 77, 1-[[2,4-Dichloro-3-[[[4-(1H-imidazol-1-yl)-2-methyl-8-quinolinyl]oxy]methyl]-phenyl]sulphonyl]-N-[3-(1-pyrrolidinyl)propyl]-2(S)-pyrrolidinecarboxamide, tartrate]?
A: Kb [1]: 2.51 nM; Ki [2]: 6.1 nM

Q: How did the Kb [1] turn out when `Cc1cc(-n2cncn2)c2cccc(OCc3c(Cl)ccc(S(=O)(=O)N4CCC[C@H]4C(=O)NCCN(C)C)c3Cl)c2n1` [Example 83, 1-[[2,4-Dichloro-3-[[[2-methyl-4-(1H-1,2,4-triazol-1-yl)-8-quinolinyl]oxy]-methyl]phenyl]sulphonyl]-N-[2-(dimethylamino)ethyl]-2(S)-pyrrolidine-carboxamide, tartrate] was run?
A: 12.6 nM

Q: What about the Ki [2] of the same compound?
A: 14 nM

Q: Which results are given for `Cc1cc(-n2cncn2)c2cccc(OCc3c(Cl)ccc(S(=O)(=O)N4CCC[C@H]4C(=O)NCCCN4CCCC4)c3Cl)c2n1` [Example 87, 1-[[2,4-Dichloro-3-[[[2-methyl-4-(1H-1,2,4-triazol-1-yl)-8-quinolinyl]oxy]-methyl]phenyl]sulphonyl]-N-[3-(1-pyrrolidinyl)propyl]-2(S)-pyrrolidine-carboxamide, methanesulphonate]?
A: Kb [1, 4]: 6.31 nM; Ki [2]: 15 nM

Q: What does the source list for `Cc1cc(-n2ccnc2)c2cccc(OCc3c(Cl)ccc(S(=O)(=O)N4CCC[C@H]4C(=O)NCc4ccccn4)c3Cl)c2n1` [Example 89, 1-[[2,4-Dichloro-3-[[[4-(1H-imidazol-1-yl)-2-methyl-8-quinolinyl]oxy]methyl]-phenyl]sulphonyl]-N-[(2-pyridinyl)methyl]-2(S)-pyrrolidinecarboxamide, methanesulphonate]?
A: Kb [1, 4]: 10 nM; Ki [2]: 55 nM

Q: With `Cc1cc(-n2ccnc2)c2cccc(OCc3c(Cl)ccc(S(=O)(=O)N4CCC[C@H]4C(=O)N(C)CCN(C)CCCO)c3Cl)c2n1` [Example 101, 1-[[2,4-Dichloro-3-[[[4-(1H-imidazol-1-yl)-2-methyl-8-quinolinyl]oxy]methyl]-phenyl]sulphonyl]-N-methyl-N-[2-[[3-(hydroxy)propyl](methyl)amino]ethyl]-2(S)-pyrrolidinecarboxamide, methanesulphonate] as the compound, how does the Kb [1, 4] read?
A: 3.98 nM

Q: What about the Ki [2] of the same compound?
A: 50 nM
